Experimental data taken from ChEMBL document CHEMBL4350967, “The Trifluoromethyl Group as a Bioisosteric Replacement of the Aliphatic Nitro Group in CB1 Receptor Positive Allosteric Modulators” (J Med Chem, 2019).

Assays:
[1] = target: T1, Cannabinoid receptor 1 (Homo sapiens, UniProt P21554); assay: Agonist activity at human CB1 receptor expressed in CHOK1 cells assessed as induction of beta-arrestin recruitment measured after 30 mins by PathHunter assay; type: cell-based
[2] = target: T1, Cannabinoid receptor 1; assay: Positive allosteric modulation of human CB1 receptor expressed in CHOK1 cells assessed as increase in CP55940-induced beta-arrestin recruitment preincubated for 30 mins followed by CP55940 addition and measured after 90 to 180 mins by PathHunter assay; type: cell-based
[3] = target: T1, Cannabinoid receptor 1; assay: Agonist activity at human Gi/Go-coupled CB1 receptor expressed in CHOK1 cells assessed as inhibition of forskolin-stimulated cAMP production measured after 30 mins by Hit-hunter assay relative to CP55940; type: cell-based; conditions: 0.5 h, read-out: Emax
[4] = target: T1, Cannabinoid receptor 1
[5] = target: T1, Cannabinoid receptor 1; assay: Agonist activity at human Gi/Go-coupled CB1 receptor expressed in CHOK1 cells assessed as inhibition of forskolin-stimulated cAMP production measured after 30 mins by Hit-hunter assay
[6] = target: T1, Cannabinoid receptor 1; assay: Positive allosteric modulation of human CB1 receptor expressed in CHOK1 cells assessed as increase in CP55940-induced beta-arrestin recruitment at 1 uM preincubated for 30 mins followed by CP55940 addition and measured after 90 to 180 mins by PathHunter assay relative to CP55940; type: cell-based
[7] = target: T1, Cannabinoid receptor 1; assay: Positive allosteric modulation of human CB1 receptor expressed in CHOK1 cells assessed as increase in CP55940-induced beta-arrestin recruitment at 500 nM preincubated for 30 mins followed by CP55940 addition and measured after 90 to 180 mins by PathHunter assay relative to CP55940; type: cell-based
[8] = target: T1, Cannabinoid receptor 1; assay: Positive allosteric modulation of human CB1 receptor expressed in CHOK1 cells assessed as increase in CP55940-induced beta-arrestin recruitment preincubated for 30 mins followed by CP55940 addition and measured after 90 to 180 mins by PathHunter assay relative to CP55940; type: cell-based
[9] = Half life in human liver microsomes at 3 uM in presence of NADPH by LC-MS/MS analysis; type: ADME, Microsome
[10] = Half life in rat liver microsomes at 3 uM in presence of NADPH by LC-MS/MS analysis; type: ADME, Microsome
[11] = target: T1, Cannabinoid receptor 1; assay: Positive allosteric modulation of human CB1 receptor expressed in CHOK1 cells assessed as increase in CP55940-induced beta-arrestin recruitment at 200 nM preincubated for 30 mins followed by CP55940 addition and measured after 90 to 180 mins by PathHunter assay relative to CP55940; type: cell-based
[12] = target: T1, Cannabinoid receptor 1; assay: Positive allosteric modulation of human CB1 receptor expressed in CHOK1 cells assessed as increase in CP55940-induced beta-arrestin recruitment at 1000 nM preincubated for 30 mins followed by CP55940 addition and measured after 90 to 180 mins by PathHunter assay relative to CP55940; type: cell-based

T1 sequence (P21554 whole entry): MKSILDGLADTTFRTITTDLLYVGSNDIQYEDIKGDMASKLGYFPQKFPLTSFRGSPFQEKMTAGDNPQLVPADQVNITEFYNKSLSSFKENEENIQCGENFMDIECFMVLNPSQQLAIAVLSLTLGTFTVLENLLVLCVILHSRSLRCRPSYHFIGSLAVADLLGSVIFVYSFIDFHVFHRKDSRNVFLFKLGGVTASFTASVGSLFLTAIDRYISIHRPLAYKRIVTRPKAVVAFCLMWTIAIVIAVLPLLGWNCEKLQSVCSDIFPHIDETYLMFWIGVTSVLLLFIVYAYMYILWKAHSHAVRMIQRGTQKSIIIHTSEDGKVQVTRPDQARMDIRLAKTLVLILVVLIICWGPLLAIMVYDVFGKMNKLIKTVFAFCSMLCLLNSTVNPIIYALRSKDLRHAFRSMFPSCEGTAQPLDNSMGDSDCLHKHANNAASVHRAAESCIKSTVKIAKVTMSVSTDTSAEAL

Compound	Activity [6]	t1/2 [9]	t1/2 [10]	further results
N#Cc1ccc2c([C@H](CC(F)(F)F)c3cccs3)c(-c3ccccc3)[nH]c2c1	–	–	–	EC50 [1]: 1.21 µM; EC50 [2]: 0.342 µM; Emax [3]: 89%; EC50 [4]: 0.04 µM; EC50 [5]: 0.076 µM
CC(C)CN(C(=O)C(F)(F)F)c1c(-c2ccccc2)[nH]c2ccccc12	50%	–	–	–
O=C(N(CC1CC1)c1c(-c2ccccc2)[nH]c2ccccc12)C(F)(F)F	50%	–	–	–
FC(F)(F)CC(c1cccs1)c1c(C2CCCC2)[nH]c2cc(C(F)(F)F)ccc12 (racemic)	–	47.1 min	44.4 min	Activity [7]: > 50%; EC50 [1]: 0.755 µM; Emax [8]: 162%; EC50 [2]: 0.301 µM
CC(=O)c1ccc2c(C(CC(F)(F)F)c3cccs3)c(-c3ccccc3)[nH]c2c1 (racemic)	–	51.2 min	12.2 min	EC50 [1]: 0.741 µM; Activity [11]: > 50%; Emax [8]: 121%; EC50 [2]: 0.158 µM
Cc1ccc2c(C(c3cccs3)C(C#N)C#N)c(-c3ccccc3)[nH]c2c1 (racemic)	–	31.2 min	4.9 min	Activity [12]: > 50%
N#Cc1ccc2[nH]c(C3CCCCC3)c(C(C[N+](=O)[O-])c3cccs3)c2c1 (racemic)	< 50%	21.4 min	3.8 min	–
O=C(O)CC(c1ccccc1)c1c(-c2ccccc2)[nH]c2ccccc12 (racemic)	–	62.7 min	–	–
O=[N+]([O-])CC(c1cccs1)c1c(-c2ccccc2)[nH]c2cc(C(F)(F)F)ccc12 (racemic)	–	30.7 min	15.6 min	EC50 [1]: 0.974 µM; EC50 [2]: 0.284 µM
N#CCC(c1ccccc1)c1c(-c2ccccc2)[nH]c2cc(Cl)ccc12 (racemic)	–	43.2 min	22.5 min	EC50 [1]: 2.35 µM; EC50 [2]: 1.11 µM
N#CC(C#N)C(c1ccccc1)c1c(-c2ccccc2)[nH]c2cc(Cl)ccc12 (racemic)	< 50%	29.6 min	13.5 min	–
O=[N+]([O-])CC(c1cccs1)c1c(-c2ccccc2)[nH]c2cc(Cl)ccc12 (racemic)	–	32.7 min	13.8 min	Activity [7]: > 50%; EC50 [1]: 1.53 µM; EC50 [2]: 0.462 µM
FC(F)(F)CC(c1cccs1)c1c(-c2ccccc2)[nH]c2cc(C(F)(F)F)ccc12 (racemic)	–	49.7 min	36.7 min	Activity [7]: > 50%; EC50 [1]: 0.801 µM; Emax [8]: 203%; EC50 [2]: 0.322 µM
N#Cc1ccc2[nH]c(-c3ccccc3)c(C(C[N+](=O)[O-])c3cccs3)c2c1 (racemic)	< 50%	49.4 min	8.2 min	–
COC(=O)c1ccc2c(C(CC(F)(F)F)c3cccs3)c(-c3ccccc3)[nH]c2c1 (racemic)	–	–	–	Activity [11]: > 50%; Emax [8]: 88%
Cc1ccc2[nH]c(-c3ccccc3)c(C(C[N+](=O)[O-])c3cccs3)c2c1 (racemic)	–	–	–	Activity [12]: > 50%
Cc1ccc2c(C(CC#N)c3ccccc3)c(-c3ccccc3)[nH]c2c1 (racemic)	–	–	–	Activity [12]: > 50%
Cc1ccc2c(C(CC(F)(F)F)c3ccco3)c(-c3ccccc3)[nH]c2c1 (racemic)	–	–	–	Activity [12]: > 50%

More lines, main results first:

Activity [6]	Compound	t1/2 [9]	t1/2 [10]	further results
< 50%	Cc1ccc2c(C(C[N+](=O)[O-])c3cccs3)c(-c3ccc(Cl)cc3)[nH]c2c1 (racemic)	24.2 min	9.8 min	–
30 to 50%	OC(C(c1ccccc1)c1c(-c2ccccc2)[nH]c2ccccc12)C(F)(F)F (racemic)	39.4 min	18.2 min	–
< 50%	CC(=O)Nc1ccc2c(C(CC(F)(F)F)c3cccs3)c(-c3ccccc3)[nH]c2c1 (racemic)	–	–	–
< 50%	CC(=O)c1ccc(-c2[nH]c3cc(Cl)ccc3c2C(C[N+](=O)[O-])c2cccs2)cc1 (racemic)	–	–	–
< 50%	CN(C)c1ccc(-c2[nH]c3cc(Cl)ccc3c2C(C[N+](=O)[O-])c2cccs2)cc1 (racemic)	–	–	–
< 50%	COC(=O)c1ccc(-c2[nH]c3cc(Cl)ccc3c2C(C[N+](=O)[O-])c2cccs2)cc1 (racemic)	–	–	–
< 50%	COc1ccc(-c2[nH]c3cc(Cl)ccc3c2C(C[N+](=O)[O-])c2cccs2)cc1 (racemic)	–	–	–
< 50%	COc1cccc(-c2[nH]c3cc(Cl)ccc3c2C(C[N+](=O)[O-])c2cccs2)c1 (racemic)	–	–	–
< 50%	CS(=O)(=O)Nc1ccc2c(C(CC(F)(F)F)c3cccs3)c(-c3ccccc3)[nH]c2c1 (racemic)	–	–	–
< 50%	CS(=O)(=O)c1ccc(-c2[nH]c3cc(Cl)ccc3c2C(C[N+](=O)[O-])c2cccs2)cc1 (racemic)	–	–	–
< 50%	Cc1ccc2[nH]c(-c3ccccc3)c(C(CC(F)(F)F)c3ccccc3)c2c1 (racemic)	–	–	–
< 50%	Cc1ccc2[nH]c(-c3ccccc3)c(C(CC(F)(F)F)c3cccs3)c2c1 (racemic)	–	–	–
